Patent US9345258B2, “Synergistic phytochemical composition and a process for preparation thereof” (priority 2011, dated 2016)

Tested on: primary OA
Experiment: Randomized, single blind, placebo-controlled trial in painful osteoarthritis
Assay type: in vivo, patients
Details: 42 days treatment
Description: The present trial was earned out to evaluate the effectiveness of the composition of the invention in the treatment of painful OA [a randomized, single blind, placebo-controlled trial]. 120 patients (37 males and 83 females) with primary OA received either the composition of the invention (500 mg twice daily) or Glucosamine sulphate (750 mg twice daily) or placebo (500 mg twice daily) or combination of the composition of the invention and Glucosamine sulphate for 42 days. During the treatment period two follow up visits on day 21st and day 42nd, efficacy was evaluated in terms of change in the intensity/severity of symptoms (as measured by VAS, WOMAC scale) and examination by orthopaedician (as measured by CGIC).

N[C@H]1C(O)O[C@H](CO)[C@@H](O)[C@@H]1O.O=S(=O)(O)O (stereo partly shown) [Glucosamine sulphate]
signs and symptoms of OA: Overall improvement
